Kd data for 8 compounds are collected here from ChEMBL document CHEMBL3991601, “The target landscape of clinical kinase drugs” (Science, 2017).

The target in test [1] is BMP-2-inducible protein kinase (Homo sapiens, UniProt Q9NSY1).
The target of test [2] is Calcium/calmodulin-dependent protein kinase type II subunit gamma (Homo sapiens, UniProt Q13555).
Test [3] deals with Ephrin type-A receptor 2 (Homo sapiens, UniProt P29317).
Test [4] deals with Ephrin type-A receptor 5 (Homo sapiens, UniProt P54756).
Sequence of Ephrin type-A receptor 5 (P54756 whole entry): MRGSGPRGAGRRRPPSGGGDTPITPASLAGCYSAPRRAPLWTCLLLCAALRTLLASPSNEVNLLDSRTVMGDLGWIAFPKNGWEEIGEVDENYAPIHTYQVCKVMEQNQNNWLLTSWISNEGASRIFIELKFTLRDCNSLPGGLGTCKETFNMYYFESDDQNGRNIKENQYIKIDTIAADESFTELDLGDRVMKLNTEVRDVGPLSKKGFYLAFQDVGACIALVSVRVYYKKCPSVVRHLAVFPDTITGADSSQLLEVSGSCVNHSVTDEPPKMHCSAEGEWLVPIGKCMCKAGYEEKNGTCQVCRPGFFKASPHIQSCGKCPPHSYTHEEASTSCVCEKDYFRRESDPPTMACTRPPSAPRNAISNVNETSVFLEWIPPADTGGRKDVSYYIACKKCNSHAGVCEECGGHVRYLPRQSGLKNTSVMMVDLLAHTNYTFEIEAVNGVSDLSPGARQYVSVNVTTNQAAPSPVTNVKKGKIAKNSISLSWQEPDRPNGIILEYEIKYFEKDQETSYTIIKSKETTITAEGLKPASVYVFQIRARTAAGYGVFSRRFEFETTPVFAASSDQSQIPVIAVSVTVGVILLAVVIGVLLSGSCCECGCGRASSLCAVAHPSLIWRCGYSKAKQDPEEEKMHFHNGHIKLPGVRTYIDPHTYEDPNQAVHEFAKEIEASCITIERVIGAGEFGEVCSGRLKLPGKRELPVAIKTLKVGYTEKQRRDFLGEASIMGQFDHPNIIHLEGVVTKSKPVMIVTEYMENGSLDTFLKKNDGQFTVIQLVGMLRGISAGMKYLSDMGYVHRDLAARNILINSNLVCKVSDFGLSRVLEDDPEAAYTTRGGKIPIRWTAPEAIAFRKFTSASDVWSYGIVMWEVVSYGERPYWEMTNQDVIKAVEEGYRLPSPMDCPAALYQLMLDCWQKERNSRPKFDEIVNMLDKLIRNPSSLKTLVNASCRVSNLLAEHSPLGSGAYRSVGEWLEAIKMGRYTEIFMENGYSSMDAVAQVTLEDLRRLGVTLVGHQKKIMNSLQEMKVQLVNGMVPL
Test [5] has as its target Serine/threonine-protein kinase/endoribonuclease IRE2 (Homo sapiens, UniProt Q76MJ5).
The target in test [6] is Guanine nucleotide-binding protein G(i) subunit alpha-2 (Homo sapiens, UniProt P04899).
Sequence of Guanine nucleotide-binding protein G(i) subunit alpha-2 (P04899 whole entry): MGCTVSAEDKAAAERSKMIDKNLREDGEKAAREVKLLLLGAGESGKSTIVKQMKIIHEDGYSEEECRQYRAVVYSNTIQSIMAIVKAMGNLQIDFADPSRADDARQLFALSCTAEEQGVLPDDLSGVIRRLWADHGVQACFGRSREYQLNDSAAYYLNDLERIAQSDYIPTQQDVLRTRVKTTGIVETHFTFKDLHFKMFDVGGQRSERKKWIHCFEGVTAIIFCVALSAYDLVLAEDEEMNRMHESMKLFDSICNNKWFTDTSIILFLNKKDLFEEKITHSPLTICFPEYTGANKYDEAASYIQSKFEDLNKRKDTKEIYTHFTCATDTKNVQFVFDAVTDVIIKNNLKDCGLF
The target of test [7] is Mitogen-activated protein kinase kinase kinase 4 (Homo sapiens, UniProt Q9Y6R4).
Test [8] concerns the target Mitogen-activated protein kinase 10 (Homo sapiens, UniProt P53779).
In test [9] the target is T1, MAP kinase-activated protein kinase 5 (Homo sapiens, UniProt Q8IW41).
T1 sequence (Q8IW41 whole entry): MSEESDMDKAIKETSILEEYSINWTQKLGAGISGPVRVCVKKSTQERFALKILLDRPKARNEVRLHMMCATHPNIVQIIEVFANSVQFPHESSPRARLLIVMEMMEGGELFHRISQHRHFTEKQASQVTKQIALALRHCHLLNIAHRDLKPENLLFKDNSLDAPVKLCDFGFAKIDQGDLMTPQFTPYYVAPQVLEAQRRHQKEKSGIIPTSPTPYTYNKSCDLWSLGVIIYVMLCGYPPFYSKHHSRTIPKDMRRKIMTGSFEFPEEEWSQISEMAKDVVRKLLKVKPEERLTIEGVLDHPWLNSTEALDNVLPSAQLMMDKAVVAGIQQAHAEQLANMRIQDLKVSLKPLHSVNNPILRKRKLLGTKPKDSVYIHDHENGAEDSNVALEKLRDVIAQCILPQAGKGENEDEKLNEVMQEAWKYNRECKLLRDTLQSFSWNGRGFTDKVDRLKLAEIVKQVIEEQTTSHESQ

Test [10] has as its target Serine/threonine-protein kinase N2 (Homo sapiens, UniProt Q16513).
In test [11] the target is STE20-like serine/threonine-protein kinase (Homo sapiens, UniProt Q9H2G2).
The target of test [12] is T2, Signal recognition particle receptor subunit alpha (Homo sapiens, UniProt P08240).
T2 sequence (P08240 whole entry): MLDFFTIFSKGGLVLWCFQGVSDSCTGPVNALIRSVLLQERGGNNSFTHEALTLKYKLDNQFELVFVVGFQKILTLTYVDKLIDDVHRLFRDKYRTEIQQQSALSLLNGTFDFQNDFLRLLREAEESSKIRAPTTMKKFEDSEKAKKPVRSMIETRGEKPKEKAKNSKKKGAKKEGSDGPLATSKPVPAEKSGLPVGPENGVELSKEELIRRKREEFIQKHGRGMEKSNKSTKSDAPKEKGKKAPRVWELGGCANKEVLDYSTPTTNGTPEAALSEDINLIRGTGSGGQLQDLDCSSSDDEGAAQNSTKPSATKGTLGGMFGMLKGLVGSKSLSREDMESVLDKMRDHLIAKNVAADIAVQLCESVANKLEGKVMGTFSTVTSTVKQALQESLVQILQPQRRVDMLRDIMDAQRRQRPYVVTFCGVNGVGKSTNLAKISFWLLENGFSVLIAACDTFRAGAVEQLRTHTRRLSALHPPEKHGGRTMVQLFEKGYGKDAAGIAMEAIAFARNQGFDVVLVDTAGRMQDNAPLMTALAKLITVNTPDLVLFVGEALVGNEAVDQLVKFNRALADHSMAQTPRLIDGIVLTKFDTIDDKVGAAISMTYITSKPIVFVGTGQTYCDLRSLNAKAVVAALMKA

The target in test [13] is T3, Non-receptor tyrosine-protein kinase TNK1 (Homo sapiens, UniProt Q13470).
T3 sequence (Q13470 whole entry): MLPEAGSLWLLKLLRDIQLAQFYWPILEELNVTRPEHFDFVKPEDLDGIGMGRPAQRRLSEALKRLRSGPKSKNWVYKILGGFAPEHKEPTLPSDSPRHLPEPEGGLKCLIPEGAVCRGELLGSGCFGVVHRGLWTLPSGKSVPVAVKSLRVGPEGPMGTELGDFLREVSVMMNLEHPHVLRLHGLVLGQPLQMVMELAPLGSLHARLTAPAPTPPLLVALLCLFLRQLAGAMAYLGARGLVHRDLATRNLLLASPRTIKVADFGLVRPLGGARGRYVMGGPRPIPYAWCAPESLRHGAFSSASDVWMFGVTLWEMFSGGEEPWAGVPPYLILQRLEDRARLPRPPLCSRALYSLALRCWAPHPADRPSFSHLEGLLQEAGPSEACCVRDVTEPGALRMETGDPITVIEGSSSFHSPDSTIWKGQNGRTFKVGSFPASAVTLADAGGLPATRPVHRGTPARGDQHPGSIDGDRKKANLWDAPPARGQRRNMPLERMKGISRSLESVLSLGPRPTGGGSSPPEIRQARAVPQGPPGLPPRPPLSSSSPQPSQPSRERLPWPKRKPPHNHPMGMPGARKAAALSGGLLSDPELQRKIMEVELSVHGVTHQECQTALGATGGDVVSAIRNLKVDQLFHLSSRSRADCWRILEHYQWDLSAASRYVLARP

The target in test [14] is Non-receptor tyrosine-protein kinase TYK2 (Homo sapiens, UniProt P29597).
Test [15] deals with Mitogen-activated protein kinase kinase kinase 20 (Homo sapiens, UniProt Q9NYL2).

Structures are written as SMILES. pKd: −log10 of the molar value. Calls of active or inactive are those of the source. Rule as the data show it, for most assays here: actives have a measured Kd and inactives only a lower limit.
Also: in the data inactive means no Kd found up to 30 µM.

Sequence of BMP-2-inducible protein kinase (Q9NSY1 whole entry): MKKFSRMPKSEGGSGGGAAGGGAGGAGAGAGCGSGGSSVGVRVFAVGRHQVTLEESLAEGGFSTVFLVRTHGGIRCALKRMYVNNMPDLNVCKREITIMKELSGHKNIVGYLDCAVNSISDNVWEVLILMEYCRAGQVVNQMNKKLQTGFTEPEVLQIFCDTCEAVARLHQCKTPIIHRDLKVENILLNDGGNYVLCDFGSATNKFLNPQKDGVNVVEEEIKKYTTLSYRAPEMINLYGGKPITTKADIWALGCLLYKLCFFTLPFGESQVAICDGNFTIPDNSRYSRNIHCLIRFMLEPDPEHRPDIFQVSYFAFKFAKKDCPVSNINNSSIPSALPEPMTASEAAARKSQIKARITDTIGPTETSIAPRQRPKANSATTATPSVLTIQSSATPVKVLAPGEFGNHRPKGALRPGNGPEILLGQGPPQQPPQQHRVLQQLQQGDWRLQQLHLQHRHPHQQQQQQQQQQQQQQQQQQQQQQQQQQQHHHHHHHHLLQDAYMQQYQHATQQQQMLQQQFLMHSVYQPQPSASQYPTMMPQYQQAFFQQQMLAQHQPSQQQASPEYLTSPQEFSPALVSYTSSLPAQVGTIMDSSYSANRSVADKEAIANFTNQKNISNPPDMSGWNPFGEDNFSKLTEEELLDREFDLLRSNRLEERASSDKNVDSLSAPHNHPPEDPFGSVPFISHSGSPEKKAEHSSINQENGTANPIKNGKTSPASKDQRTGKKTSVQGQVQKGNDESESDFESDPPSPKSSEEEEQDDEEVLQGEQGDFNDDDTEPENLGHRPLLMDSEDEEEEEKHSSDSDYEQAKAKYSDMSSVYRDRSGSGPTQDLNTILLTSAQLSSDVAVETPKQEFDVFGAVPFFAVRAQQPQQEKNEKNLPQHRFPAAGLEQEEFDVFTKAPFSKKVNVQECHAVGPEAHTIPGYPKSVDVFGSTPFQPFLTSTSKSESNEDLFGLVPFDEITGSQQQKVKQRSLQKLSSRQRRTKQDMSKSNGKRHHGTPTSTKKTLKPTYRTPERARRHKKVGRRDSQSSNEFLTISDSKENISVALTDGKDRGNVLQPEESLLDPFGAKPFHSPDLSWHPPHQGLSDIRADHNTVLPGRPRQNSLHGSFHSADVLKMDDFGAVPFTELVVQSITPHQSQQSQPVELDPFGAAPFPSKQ
Sequence of Mitogen-activated protein kinase 10 (P53779 whole entry): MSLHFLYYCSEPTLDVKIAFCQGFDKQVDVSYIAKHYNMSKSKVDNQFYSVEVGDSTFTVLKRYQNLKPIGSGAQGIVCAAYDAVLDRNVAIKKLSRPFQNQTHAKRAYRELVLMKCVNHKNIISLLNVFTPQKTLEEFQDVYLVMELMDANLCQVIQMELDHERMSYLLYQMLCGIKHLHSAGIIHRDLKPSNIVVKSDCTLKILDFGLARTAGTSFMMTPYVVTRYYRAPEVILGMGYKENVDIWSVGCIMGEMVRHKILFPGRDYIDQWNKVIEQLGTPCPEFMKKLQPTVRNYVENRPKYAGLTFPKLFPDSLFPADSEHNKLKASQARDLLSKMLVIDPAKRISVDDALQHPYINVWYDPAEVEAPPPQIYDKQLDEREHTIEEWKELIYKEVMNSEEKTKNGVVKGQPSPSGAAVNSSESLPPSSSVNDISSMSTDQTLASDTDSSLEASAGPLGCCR
Sequence of Serine/threonine-protein kinase/endoribonuclease IRE2 (Q76MJ5 whole entry): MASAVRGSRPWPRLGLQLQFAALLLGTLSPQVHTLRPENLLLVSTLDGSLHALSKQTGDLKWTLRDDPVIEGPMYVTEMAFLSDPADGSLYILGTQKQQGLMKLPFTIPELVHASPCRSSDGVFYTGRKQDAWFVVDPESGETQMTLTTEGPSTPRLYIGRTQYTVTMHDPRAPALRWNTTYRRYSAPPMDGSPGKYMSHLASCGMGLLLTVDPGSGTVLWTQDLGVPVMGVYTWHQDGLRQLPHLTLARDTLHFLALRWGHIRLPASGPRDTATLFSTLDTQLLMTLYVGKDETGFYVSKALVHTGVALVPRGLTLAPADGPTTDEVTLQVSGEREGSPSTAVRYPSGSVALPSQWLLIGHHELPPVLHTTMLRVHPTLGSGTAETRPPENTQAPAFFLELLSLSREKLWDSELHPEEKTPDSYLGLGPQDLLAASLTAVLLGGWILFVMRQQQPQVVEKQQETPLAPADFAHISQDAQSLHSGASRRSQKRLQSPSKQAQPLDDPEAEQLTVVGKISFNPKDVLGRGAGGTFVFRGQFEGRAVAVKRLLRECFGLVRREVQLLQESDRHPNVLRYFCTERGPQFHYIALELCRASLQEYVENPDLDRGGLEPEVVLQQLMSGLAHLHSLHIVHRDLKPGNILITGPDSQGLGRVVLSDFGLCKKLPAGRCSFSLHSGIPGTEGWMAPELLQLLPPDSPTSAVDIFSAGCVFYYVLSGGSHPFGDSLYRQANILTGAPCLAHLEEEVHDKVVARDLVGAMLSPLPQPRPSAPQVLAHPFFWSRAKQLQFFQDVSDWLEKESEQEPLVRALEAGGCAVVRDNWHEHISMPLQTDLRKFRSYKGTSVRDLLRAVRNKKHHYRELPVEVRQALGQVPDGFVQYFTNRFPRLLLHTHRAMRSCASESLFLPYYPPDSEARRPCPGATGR
Sequence of Ephrin type-A receptor 2 (P29317 whole entry): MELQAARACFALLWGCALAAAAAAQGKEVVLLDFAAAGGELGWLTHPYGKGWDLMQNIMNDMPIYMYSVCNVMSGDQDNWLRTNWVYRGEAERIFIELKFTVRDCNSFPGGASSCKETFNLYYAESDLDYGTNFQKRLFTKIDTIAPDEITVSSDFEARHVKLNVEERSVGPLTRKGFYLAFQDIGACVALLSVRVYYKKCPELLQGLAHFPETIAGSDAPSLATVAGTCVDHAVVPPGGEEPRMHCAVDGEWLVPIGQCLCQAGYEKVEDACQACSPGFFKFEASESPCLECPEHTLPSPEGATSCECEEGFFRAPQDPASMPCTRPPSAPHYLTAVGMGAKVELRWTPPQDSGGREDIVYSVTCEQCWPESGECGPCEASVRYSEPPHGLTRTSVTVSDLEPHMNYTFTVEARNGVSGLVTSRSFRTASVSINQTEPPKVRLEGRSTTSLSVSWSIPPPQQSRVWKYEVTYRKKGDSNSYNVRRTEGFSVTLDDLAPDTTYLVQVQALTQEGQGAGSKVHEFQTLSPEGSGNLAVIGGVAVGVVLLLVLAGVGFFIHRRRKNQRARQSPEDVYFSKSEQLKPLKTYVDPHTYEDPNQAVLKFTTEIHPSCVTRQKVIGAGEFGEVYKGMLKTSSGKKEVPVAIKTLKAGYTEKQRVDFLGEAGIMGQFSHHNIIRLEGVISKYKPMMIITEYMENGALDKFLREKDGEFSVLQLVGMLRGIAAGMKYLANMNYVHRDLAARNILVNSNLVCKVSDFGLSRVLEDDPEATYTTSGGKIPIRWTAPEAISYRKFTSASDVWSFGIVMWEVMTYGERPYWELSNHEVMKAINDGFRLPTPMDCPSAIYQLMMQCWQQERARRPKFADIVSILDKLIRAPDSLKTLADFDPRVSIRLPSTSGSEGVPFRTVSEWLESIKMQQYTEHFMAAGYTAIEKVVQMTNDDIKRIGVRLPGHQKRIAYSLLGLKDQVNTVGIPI

In the case of `COc1cccc2cc(-c3nc([C@H]4CC[C@H](C(=O)O)CC4)n4ncnc(N)c34)[nH]c12` [OSI-027], the Kd in test [1], in test [2], in test [3], in test [4], in [5] and in [6] was > 30 µM (inactive) each time. For the same compound, the Kd in test [7], in test [9], in test [10], in test [11], in test [12] and in test [13] was > 30 µM (inactive) in each case. The Kd in test [14] and in test [15] was > 30 µM (inactive) throughout. The same compound gave a pKd in test [8] of 5.79.

`O=c1[nH]c([C@@H]2CCCN2)nc2c1oc1ccc(Cl)cc12`: the Kd in test [1], in test [2], in [3], in test [4], in [5] and in test [6] was > 30 µM (inactive) throughout. The Kd in test [7], in [8], in test [9], in [10], in test [11] and in [12] was > 30 µM (inactive) in each case. In addition, the Kd in test [13], in test [14] and in test [15] was > 30 µM (inactive) each time.

As for `C=CCN(/C=C1/C(=O)O[C@H](COC)[C@@]2(C)C1=C(O)C(=O)C1=C2[C@H](OC(C)=O)C[C@]2(C)C(=O)CC[C@@H]12)CC=C` [SONOLISIB], the Kd in test [1], in test [2], in test [3], in [4], in test [5] and in test [6] was > 30 µM (inactive) throughout. Moreover, the Kd in test [7], in test [8], in test [9], in test [10], in test [11] and in test [13] was > 30 µM (inactive) throughout. Also, the Kd in test [14] and in [15] was > 30 µM (inactive) throughout.

With `NC[C@@](O)(c1ccc(Cl)cc1)c1ccc(-c2cn[nH]c2)cc1` [AT-13148], the Kd in [1], in test [2], in test [3], in test [6], in [7] and in test [8] was > 30 µM (inactive) throughout. The Kd was > 30 µM (inactive) in [9]; 0.009 µM (active) in test [10]; > 30 µM (inactive) in test [11]; > 30 µM (inactive) in test [12]; > 30 µM (inactive) in test [13]; > 30 µM (inactive) in [14]. Moreover, the Kd in test [15] is > 30 µM (inactive).

For the compound `COc1cc(F)c(F)c(Nc2ccc(I)cc2F)c1NS(=O)(=O)C1(C[C@H](O)CO)CC1` [REFAMETINIB], the Kd in [1], in [2], in test [3], in [4], in test [5] and in [6] was > 30 µM (inactive) in each case. Also, the Kd in [7] is > 30 µM (inactive); in [8], 0.036 µM (active); in [9], > 30 µM (inactive); in test [10], > 30 µM (inactive); in test [11], > 30 µM (inactive); in test [13], > 30 µM (inactive). Besides, the Kd in test [14] and in test [15] was > 30 µM (inactive) throughout.

For `Cc1c(NC(=O)OC[C@@H]2COCCN2)cn2ncnc(Nc3ccc4c(cnn4Cc4cccc(F)c4)c3)c12` [AC-480], the Kd in test [1], in test [2], in [3], in test [4], in test [5] and in test [6] was > 30 µM (inactive) in each case. In addition, the Kd in test [7], in test [8], in [9], in [10], in test [11] and in test [13] was > 30 µM (inactive) in each case. For the same compound, the Kd in test [14] and in test [15] was > 30 µM (inactive) throughout.

On to `CC(C)CC(=O)Nc1[nH]nc2c1CN(C(=O)C1CCN(C)CC1)C2(C)C` [PHA-793887], for which the Kd in test [1], in [2], in test [3], in test [4], in [5] and in [6] was > 30 µM (inactive) throughout. Also, the Kd in test [7], in test [8], in test [9], in [10], in [11] and in [13] was > 30 µM (inactive) in each case. Further, the Kd in test [14] and in test [15] was > 30 µM (inactive) throughout.

`CC1(COc2ccc3c(c2)ncn3-c2ccc3cccc(N4CCC(N)CC4)c3n2)COC1` [CRENOLANIB]: the Kd in test [1] is 1.2 µM (active); in test [2] it was 0.766 µM (active); in test [3], > 30 µM (inactive); in test [4], > 30 µM (inactive); in test [5] it was > 30 µM (inactive); in test [6], > 30 µM (inactive). In addition, the Kd in test [7] is > 30 µM (inactive); in test [8], > 30 µM (inactive); in test [9] it was > 30 µM (inactive); in test [10], 1.21 µM (active); in test [11], > 30 µM (inactive); in test [13], > 30 µM (inactive). The Kd in test [14] and in test [15] was > 30 µM (inactive) throughout.
